These results are taken from US12152991B2, “Time-resolved laser-induced fluorescence spectroscopy systems and uses thereof” (Cedars-Sinai Medical Center, priority 2013, dated 2024).

The assay deals with rabbit brain tissue. Description: Continuous NADH fluorescence monitoring (TRLIFS) in ex-vivo brain tissue exposed to Rotenone. It counts as cell-based. The conditions noted are these: FIG. 6. From the text: In order to excite the tissue, a Q-switched Nd:YaG laser emitting at a wavelength of 350 nm was used, running at 1 KHz with a pulse width (FWHM) of 400 ps (Teem Photonics PNVM02510). […] The excitation light was delivered to the tissue using a custom made trifurcated optical probe. The probe consisted of a central 600 micron fiber for delivering the excitation light surrounded by twelve 200 micron fibers to collect the fluorescence (FIG. 3). Every other fiber from the twelve collection fibers were bundled together forming two channels. One collection channel/bundle connected to a spectrometer (Ocean Optics, Maya), which measured the fluorescence spectrum every 100 ms and the other channel/bundle connected to a beam splitter (demultiplexer). The beam splitter at 452 nm of wavelength separated the significant free and bound fluorescence, which was recorded both by MCP-PMT and spectrometer.
Rabbit brain was removed after sacrificing the animal in the OR and transported in cold oxygen rich Kreb-ringer solution to the laboratory. […] A baseline NADH (bound and free) was recorded till the fluorescence from the tissue equilibrated and plateaued. After approximately 30 mins, a measured dose of 50 nM rotenone, which blocks the binding of NADH to […] in the mitochondrion, was added. […]
The effect of various concentrations of Rotenone on the rabbit brain tissue was recorded (FIG. 6). […]

Structures are written as SMILES.

As for `C=C(C)[C@H]1Cc2c(ccc3c2O[C@@H]2COc4cc(OC)c(OC)cc4[C@@H]2C3=O)O1` [Rotenone], the “NADH level (fluorescence, free and bound)” value (ex-vivo rabbit brain cortex in Kreb-Ringer solution, 95% O2/5% CO2, 50 nM Rotenone added, excitation 350 nm) is reported as “increase in NADH level”. The NADH fluorescence result (ex-vivo rabbit brain cortex, increasing concentrations of Rotenone added every 10 mins) was “NADH fluorescence increased”.
